From patent US8614327B2 (Vertex Pharmaceuticals Incorporated, priority 2004, dated 2013)

Target: T1, ΔF508-CFTR (Homo sapiens, UniProt P13569, DEL508-508)
T1 construct: expressed in transfected cells
Test: Membrane potential optical (FRET/VIPR) assay, identification of potentiator compounds
Format: cell-based
Conditions: Table 3, assay not given; for % Activity: relative efficacy
How it was run: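 NIH3T3 mouse fibroblasts stably expressing ΔF508-CFTR, temperature-corrected 24 h at 27° C., read on VIPR by FRET between CC2-DMPE and DiSBAC2(3). Potentiators identified in a double-addition format, first adding chloride-free (gluconate) medium with or without compound.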

T1 sequence (P13569 with tags, fused parts or gaps DEL508-508): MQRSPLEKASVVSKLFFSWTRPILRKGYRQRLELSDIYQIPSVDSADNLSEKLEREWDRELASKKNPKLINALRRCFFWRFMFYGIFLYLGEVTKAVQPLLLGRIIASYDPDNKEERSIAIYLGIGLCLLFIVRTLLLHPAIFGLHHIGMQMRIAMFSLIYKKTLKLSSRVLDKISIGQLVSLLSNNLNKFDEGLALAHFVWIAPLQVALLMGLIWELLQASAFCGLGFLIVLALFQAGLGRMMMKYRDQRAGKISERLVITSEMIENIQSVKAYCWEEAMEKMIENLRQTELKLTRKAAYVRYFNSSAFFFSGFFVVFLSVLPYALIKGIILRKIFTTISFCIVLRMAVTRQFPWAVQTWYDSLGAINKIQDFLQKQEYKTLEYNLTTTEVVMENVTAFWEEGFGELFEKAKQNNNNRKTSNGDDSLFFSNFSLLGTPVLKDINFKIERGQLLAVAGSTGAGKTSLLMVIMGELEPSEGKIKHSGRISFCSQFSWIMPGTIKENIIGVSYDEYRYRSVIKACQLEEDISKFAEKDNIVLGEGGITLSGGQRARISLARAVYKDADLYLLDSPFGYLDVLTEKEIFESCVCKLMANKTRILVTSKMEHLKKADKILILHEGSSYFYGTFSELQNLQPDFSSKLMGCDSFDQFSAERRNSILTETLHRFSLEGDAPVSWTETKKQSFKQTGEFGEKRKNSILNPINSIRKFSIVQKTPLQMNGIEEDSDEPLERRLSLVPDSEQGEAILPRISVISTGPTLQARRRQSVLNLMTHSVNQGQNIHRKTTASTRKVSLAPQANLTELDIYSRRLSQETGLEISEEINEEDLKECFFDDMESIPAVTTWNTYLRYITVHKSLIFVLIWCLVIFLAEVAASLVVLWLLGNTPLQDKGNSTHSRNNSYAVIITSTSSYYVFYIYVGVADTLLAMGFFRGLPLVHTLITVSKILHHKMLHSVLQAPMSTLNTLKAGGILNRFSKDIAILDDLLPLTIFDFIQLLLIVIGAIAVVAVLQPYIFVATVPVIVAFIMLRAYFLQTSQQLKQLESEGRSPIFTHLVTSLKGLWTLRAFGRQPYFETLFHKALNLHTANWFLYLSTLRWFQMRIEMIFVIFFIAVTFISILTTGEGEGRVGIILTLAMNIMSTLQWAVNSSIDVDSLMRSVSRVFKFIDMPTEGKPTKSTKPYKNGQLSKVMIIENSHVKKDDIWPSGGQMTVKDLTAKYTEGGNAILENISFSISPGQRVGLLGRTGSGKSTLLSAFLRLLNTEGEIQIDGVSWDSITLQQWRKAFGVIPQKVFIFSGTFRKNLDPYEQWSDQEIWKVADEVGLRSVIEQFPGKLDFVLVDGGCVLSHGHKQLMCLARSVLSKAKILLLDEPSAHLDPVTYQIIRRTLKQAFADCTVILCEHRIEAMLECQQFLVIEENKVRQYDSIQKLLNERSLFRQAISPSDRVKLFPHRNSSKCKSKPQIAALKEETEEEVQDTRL

SMILES	EC50 [µM]	% Activity
O=C(Nc1ccc(N2CCCC2)cc1C(F)(F)F)c1c[nH]c2ccccc2c1=O [Compound 658, 4-oxo-N-[4-pyrrolidin-1-yl-2-(trifluoromethyl)phenyl]-1H-quinoline-3-carboxamide]	< 10	++ (between 25% to 100%)
CCc1cc(C(C)(C)C)c(O)cc1NC(=O)c1c[nH]c2ccccc2c1=O [Compound 659, N-(2-ethyl-5-hydroxy-4-tert-butyl-phenyl)-4-oxo-1H-quinoline-3-carboxamide]	< 10	++ (between 25% to 100%)
CCOC(=O)[C@H]1CCCN(c2ccc(NC(=O)c3c[nH]c4ccccc4c3=O)c(C(F)(F)F)c2)C1 [Compound 660, (S)-ethyl 1-(4-(4-oxo-1,4-dihydroquinoline-3-carboxamido)-3-(trifluoromethyl)phenyl)piperidine-3-carboxylate]	< 10	++ (between 25% to 100%)
Cc1cccc2[nH]cc(C(=O)Nc3cc4[nH]ccc4cc3C(F)(F)F)c(=O)c12 [Compound 661, 5-methyl-4-oxo-N-[5-(trifluoromethyl)-1H-indol-6-yl]-1H-quinoline-3-carboxamide]	< 10	++ (between 25% to 100%)
CC(C)(C)c1ccc(O)cc1NC(=O)c1c[nH]c2ccccc2c1=O [Compound 662, N-(5-hydroxy-2-tert-butyl-phenyl)-4-oxo-1H-quinoline-3-carboxamide]	< 10	+++ (>100%)
CC(C)(C)c1cc(C(C)(C)C)c(NC(=O)c2c[nH]c3c(Cl)cccc3c2=O)cc1O [Compound 663, 8-chloro-N-(5-hydroxy-2,4-ditert-butyl-phenyl)-4-oxo-1H-quinoline-3-carboxamide]	< 10	++ (between 25% to 100%)
CC(C)(C)c1cccc(NC(=O)c2c[nH]c3ccc(F)cc3c2=O)c1 [Compound 664, 6-fluoro-4-oxo-N-(3-tert-butylphenyl)-1H-quinoline-3-carboxamide]	< 10	++ (between 25% to 100%)
CC(C)(C)c1ccc(O)cc1NC(=O)c1c[nH]c2ccc(F)cc2c1=O [Compound 665, 6-fluoro-N-(5-hydroxy-2-tert-butyl-phenyl)-4-oxo-1H-quinoline-3-carboxamide]	< 10	++ (between 25% to 100%)
COc1cc(NC(=O)c2c[nH]c3ccc(F)cc3c2=O)cc(C(F)(F)F)c1 [Compound 666, 6-fluoro-N-[3-methoxy-5-(trifluoromethyl)phenyl]-4-oxo-1H-quinoline-3-carboxamide]	< 10	++ (between 25% to 100%)
Cc1cccc2[nH]cc(C(=O)Nc3ccc(N4CC(F)(F)C[C@H]4C)cc3C(F)(F)F)c(=O)c12 [Compound 667, (R)-N-(4-(4,4-difluoro-2-methylpyrrolidin-1-yl)-2-(trifluoromethyl)phenyl)-5-methyl-4-oxo-1,4-dihydroquinoline-3-carboxamide]	< 10	++ (between 25% to 100%)
O=C(Nc1ccc(N2CCC(CO)CC2)cc1C(F)(F)F)c1c[nH]c2ccccc2c1=O [Compound 668, N-[4-[4-(hydroxymethyl)-1-piperidyl]-2-(trifluoromethyl)phenyl]-4-oxo-1H-quinoline-3-carboxamide]	< 10	++ (between 25% to 100%)
C[C@H]1CCCN1c1ccc(NC(=O)c2c[nH]c3cccc(C(F)(F)F)c3c2=O)c(C(F)(F)F)c1 [Compound 669, (S)-N-(4-(2-methylpyrrolidin-1-yl)-2-(trifluoromethyl)phenyl)-4-oxo-5-(trifluoromethyl)-1,4-dihydroquinoline-3-carboxamide]	< 10	++ (between 25% to 100%)
O=C(Nc1ccc(N2CCC[C@@H]2CO)cc1C(F)(F)F)c1c[nH]c2ccccc2c1=O [Compound 670, (R)-N-(4-(2-(hydroxymethyl)pyrrolidin-1-yl)-2-(trifluoromethyl)phenyl)-4-oxo-1,4-dihydroquinoline-3-carboxamide]	< 10	++ (between 25% to 100%)
Nc1nc2ccc(NC(=O)c3c[nH]c4ccccc4c3=O)cc2s1 [Compound 671, N-(2-aminobenzothiazol-6-yl)-4-oxo-1H-quinoline-3-carboxamide]	< 10	++ (between 25% to 100%)
CC(C)(C)c1cc(C(C)(C)C)c(NC(=O)c2c[nH]c3cc(F)c(F)cc3c2=O)cc1O [Compound 672, 6,7-difluoro-N-(5-hydroxy-2,4-ditert-butyl-phenyl)-4-oxo-1H-quinoline-3-carboxamide]	< 10	++ (between 25% to 100%)
O=C(Nc1ccc(N2CCN(CCO)CC2)cc1C(F)(F)F)c1c[nH]c2ccccc2c1=O [Compound 673, N-[4-[4-(2-hydroxyethyl)piperazin-1-yl]-2-(trifluoromethyl)phenyl]-4-oxo-1H-quinoline-3-carboxamide]	< 10	++ (between 25% to 100%)
O=C(Nc1ccc(N2CCCC2)cc1)c1c[nH]c2ccccc2c1=O [Compound 674, 4-oxo-N-(4-pyrrolidin-1-ylphenyl)-1H-quinoline-3-carboxamide]		++ (between 25% to 100%)
COc1cc(N2CCCC2)ccc1NC(=O)c1c[nH]c2ccccc2c1=O [Compound 675, N-(2-methoxy-4-pyrrolidin-1-yl-phenyl)-4-oxo-1H-quinoline-3-carboxamide]	< 10	++ (between 25% to 100%)
Cc1ccc(C(F)(F)F)cc1NC(=O)c1c[nH]c2cccc(O)c2c1=O [Compound 676, 5-hydroxy-N-[2-methyl-5-(trifluoromethyl)phenyl]-4-oxo-1H-quinoline-3-carboxamide]	< 10	++ (between 25% to 100%)
CC(C)(C)c1cc(F)c(NC(=O)c2c[nH]c3cc(C#N)ccc3c2=O)cc1O [Compound 677, 7-cyano-N-(2-fluoro-5-hydroxy-4-tert-butyl-phenyl)-4-oxo-1H-quinoline-3-carboxamide]	< 10	++ (between 25% to 100%)
Cc1ccc(C(F)(F)F)cc1NC(=O)c1c[nH]c2ccc(F)cc2c1=O [Compound 678, 6-fluoro-N-[2-methyl-5-(trifluoromethyl)phenyl]-4-oxo-1H-quinoline-3-carboxamide]	< 10	++ (between 25% to 100%)
CC(C)(C)c1cc2cc[nH]c2cc1NC(=O)c1c[nH]c2ccc(O)cc2c1=O [Compound 679, 6-hydroxy-4-oxo-N-(5-tert-butyl-1H-indol-6-yl)-1H-quinoline-3-carboxamide]	< 10	++ (between 25% to 100%)
